The record followed here is patent US9125930B2, “EGFR aptamer inhibitor for use in therapy and diagnosis” (CONSIGLIO NAZIONALE DELLE RICERCHE, priority 2010, dated 2015).

One data set deals with EGFR (Homo sapiens, UniProt P00533). In words: Immunoblot of pEGFR in A549 xenograft tumor lysates. The format is in vivo, mouse. The arrangement: from tissue; host or cells: A549 xenograft tumours excised from athymic CD-1 nude mice. The note with it: pooled tumor lysates. The method, then:
FIG. 8. (A) A549 cells (2,000 cells/well in 24-well plates) were treated for 24 h or 48 h with CL4 42-81 or CL4 scrambled (200 nM-final concentration) and proliferation was determined by [^3H]-thymidine incorporation. Vertical bars indicate the standard deviation values. […] Day 0 marks the first day of injection. Data are shown as means±s.e.m. (n=8 tumors). (C) Three tumors per group selected randomly were excised, lysed, and the pooled lysates were immunoblotted with anti-pEGFR, anti-EGFR, anti-caspase-3, anti-cleaved caspase-8 and anti-αtubulin antibodies, as indicated. Molecular weights of indicated proteins are reported. (D) Cell lysates as in (C) were analyzed by caspase-3 fluorimetric assays.
Athymic CD-1 nude mice (nu/nu) were housed in a highly controlled microbiological environment, thus to guarantee specific pathogen free conditions. Mice were injected subcutaneously with 3×10^6 (in 100 μl) in vitro propagated A549. Sixteen non-necrotic tumors of about 0.5 cm in diameter were randomly divided into two groups of eight mice as follows: group 1, CL4 scrambled-treated; group 2, CL4 42-81-treated. Aptamers (200 pmols/injection) were injected intra-tumorally in 100-1 μl volumes three times a week for 16 days. Tumors were measured every 2 days.

A further data set deals with STAT 3. As to the kind of experiment: Immunoblot of EGF-induced STAT3 phosphorylation. The conditions noted are these: data not shown. Format: cell-based, human. The method, then:
(§1) To assess the effects of aptamers on EGFR activity, A549 cells (1.5×10^5 cells per 3.5-cm plate) were serum-starved over night, pretreated with 200 nM CL4 42-81 aptamer or the scrambled aptamer used as a negative control for 3 h and then stimulated for 30 min with 50 ng/ml EGF (R&D Systems, Minneapolis, Minn.) either alone or in presence of each aptamer. The aptamers were subjected to a short denaturation-renaturation step (85° C. for 5 min, snap-cooled on ice for 2 min, and allowed to warm up to 37° C.) before each treatment. To prepare cell extracts, cells were washed twice in ice-cold PBS, and lysed in buffer A (50 mM Tris-HCl pH 8.0 buffer containing 150 mM NaCl, 1% Nonidet P-40, 2 mg/ml aprotinin, 1 mg/ml pepstatin, 2 mg/ml leupeptin, 1 mM Na3VO4). Protein concentration was determined by the Bradford assay using bovine serum albumin as the standard. The cell lysates were subjected to SDS-PAGE. […]
(In general: Immunoblotting shows a protein as a band on a membrane.)

A further data set relates to ERK. As to the kind of experiment: Immunoblot of EGF-induced ERK phosphorylation. Format: cell-based, human. The note with it: data not shown. Here is the method:
as §1

The target of data set [1] is T1, soluble extracellular domain of human ErbB3 (EC-ErbB3) (Homo sapiens, UniProt P21860).
T1 construct: purchased R&D Systems
As to the kind of experiment: Filter binding on soluble extracellular domain of ErbB3. Here is the method:
(§2) Binding experiments were performed with 5′-[^32P]-labeled RNA. For labeling 2′-F-Py RNAs were 5′-end dephosphorylated using bacterial alcaline phosphatase (Invitrogen, Carlsbad, Calif.) before [^32P]-5′-end-labeled using T4 kinase (Invitrogen) and γ-[^32P]-ATP (6×10^3 Ci/mmol, GE Healthcare Bio-Sciences, Uppsala, Sweden) according to the supplier's instructions.
The aptamers ability to bind EGFR or ErbB3 soluble extracellular domain (EC-EGFR and EC-ErbB3) was investigated by filter binding by plotting the fraction of RNA bound to the nitrocellulose filter as a function of protein concentration, using the following equation:
[formula] where Bmax is the extrapolated maximal amount of RNA:protein complex that will be bound. 1 nM of radiolabelled aptamers (CL4 42-81 aptamer or the scrambled sequence) were incubated with 1, 3.2, 10, 32, 100, 320 and 1000 nM of EC-EGFR and EC-ErbB3 (all from R&D Systems, Minneapolis, Minn.) for 15 min at 37° in phosphate-buffered saline (PBS) supplemented with 0.01% bovine serum albumin.
In order to test the binding for dimeric and monomeric proteins, 1 nM of radiolabelled aptamers (CL4 42-81 or scrambled) were incubated with 20 nM of EC-EGFR and EC-ErbB3 without or with 5 mM DTT.
After incubation, the aptamer-protein mix was passed through nitrocellulose membrane filter (Millipore Co., Bedford, Mass.) and filters were counted. […]

The test system of data set [2] is epidermoid carcinoma A431 cells. As to the kind of experiment: Binding on A431 cells. The arrangement: species or system human. The conditions noted are these: high level of EGFR; 100 nM. The method, then: as §2
For binding experiments on cells, 3.5×10^4 cells were plated in 24-well plates in triplicate and were incubated with CL4 42-81 aptamer the scrambled sequence used as a negative control at 100 nM concentration in 200 μl of DMEM serum free for 20 min at RT in the presence of 100 μg/ml polyinosine as a nonspecific competitor (Sigma, St. Louis, Mo.). After five washings with 500 μl DMEM, bound sequences were recovered in 300 μl of SDS 1%, and the amount of radioactivity recovered was counted.

T1 sequence (P21860 20-643 limits assumed): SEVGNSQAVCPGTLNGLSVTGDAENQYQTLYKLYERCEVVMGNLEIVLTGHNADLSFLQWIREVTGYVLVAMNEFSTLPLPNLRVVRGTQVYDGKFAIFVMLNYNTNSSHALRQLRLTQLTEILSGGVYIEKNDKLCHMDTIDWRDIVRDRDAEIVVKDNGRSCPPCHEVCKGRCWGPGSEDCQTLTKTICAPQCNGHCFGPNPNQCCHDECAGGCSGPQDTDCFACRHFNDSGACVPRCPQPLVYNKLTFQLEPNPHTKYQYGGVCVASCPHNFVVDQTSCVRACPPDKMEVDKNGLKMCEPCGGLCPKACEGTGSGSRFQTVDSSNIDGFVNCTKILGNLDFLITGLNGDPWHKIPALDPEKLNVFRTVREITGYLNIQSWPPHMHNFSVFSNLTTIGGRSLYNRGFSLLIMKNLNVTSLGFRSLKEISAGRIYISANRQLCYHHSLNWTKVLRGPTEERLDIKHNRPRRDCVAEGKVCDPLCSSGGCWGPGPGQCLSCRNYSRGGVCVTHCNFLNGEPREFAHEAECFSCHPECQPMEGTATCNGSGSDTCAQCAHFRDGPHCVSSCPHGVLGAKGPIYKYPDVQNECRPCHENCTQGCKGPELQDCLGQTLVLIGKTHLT

Turning to “CL4 42-81: 2′-fluoropyrimidine nuclease-resistant RNA aptamer of 39 nt: 5′ GCCUUAGUAACGUGCUUUGAUGUCGAUUCGACAGGAGGC 3′ (SEQ ID No. 1) (2'-fluoro at CU, RNA at AG, backbone not given here)”, the “extent of EGFR tyrosine phosphorylation in xenograft tumors” value in the data set with EGFR is on record as “decreases”. The “EGF-induced phosphorylation of STAT 3” value in the data set on STAT 3 is listed as “decreases”. For the same substance, the “EGF-induced phosphorylation of ERK” value in the data set with ERK is given as “decreases”. For the same substance, in data set [1] (does not bind or binds with lower affinity), the “affinity for EC-ErbB3, magnitude lower” value is recorded as “at least 10^3”. In data set [1] (filter binding, EC-ErbB3, protein up to 1000 nM), the Kd entry is listed as “no Kd value could be calculated”. The “binding on A431 cells” value in data set [2] is “binds”.
